The record followed here is PubChem BioAssay AID1411 (The Scripps Research Institute Molecular Screening Center, 2008).

The source made the active and inactive calls. How the calls were made is not given here.

This assay has as its target Signal transducer and activator of transcription 1-alpha/beta (Homo sapiens) (UniProt P42224). Description: STAT1 transcription blockade – cell-based, NIH 3T3, luciferase reporter, counter-screen for STAT3 inhibitor project, dose response (AID 1411). The settings on record: NIH 3T3 fibroblasts, counterscreen. On the technique in general: Reporter assays use an easily measured gene product as a stand-in for the process of interest.

Chain of Signal transducer and activator of transcription 1-alpha/beta (Homo sapiens) (P42224 whole entry, looked up): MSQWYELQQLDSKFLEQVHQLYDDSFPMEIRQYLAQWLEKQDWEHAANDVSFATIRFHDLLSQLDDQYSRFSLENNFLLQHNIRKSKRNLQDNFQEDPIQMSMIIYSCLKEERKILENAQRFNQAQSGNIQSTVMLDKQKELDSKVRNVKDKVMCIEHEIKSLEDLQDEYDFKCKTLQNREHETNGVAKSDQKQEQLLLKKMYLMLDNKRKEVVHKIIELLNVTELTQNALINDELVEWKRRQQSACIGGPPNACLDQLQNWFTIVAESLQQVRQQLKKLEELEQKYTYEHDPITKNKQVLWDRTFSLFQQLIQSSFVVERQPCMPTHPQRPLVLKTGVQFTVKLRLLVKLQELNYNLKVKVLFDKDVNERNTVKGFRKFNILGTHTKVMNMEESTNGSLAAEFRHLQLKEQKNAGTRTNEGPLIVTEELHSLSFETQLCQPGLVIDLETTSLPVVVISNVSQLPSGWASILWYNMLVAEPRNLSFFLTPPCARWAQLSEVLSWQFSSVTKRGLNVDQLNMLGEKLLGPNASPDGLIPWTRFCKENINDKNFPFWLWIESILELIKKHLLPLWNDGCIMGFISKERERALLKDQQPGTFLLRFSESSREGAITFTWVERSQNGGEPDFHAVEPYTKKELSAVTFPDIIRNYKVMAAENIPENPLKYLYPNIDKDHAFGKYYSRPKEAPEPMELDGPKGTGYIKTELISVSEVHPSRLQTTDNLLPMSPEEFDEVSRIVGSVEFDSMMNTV

A word on the IC50: it is the concentration needed to halve the response being measured. For the compound `CCCNC(=O)c1ccc(-c2nc3ccccc3s2)s1`, the IC50 result was “inactive”.

Consider `O=C(Oc1cccc(Nc2ncnc3ccccc23)c1)c1ccccc1Cl`, for which the IC50 is > 55.7 µM (inactive).

`COC(=O)c1nn(-c2ccc3c(c2)CCN3C(C)=O)cc1O`: the IC50 was 9.87 µM.

In the case of `CC1CCCCC1NS(=O)(=O)c1ccc(S(=O)(=O)NCc2ccncc2)cc1` (configuration not stated), the IC50 is > 55.7 µM (inactive).

Turning to `O=S(=O)(c1ccc2c(c1)OCCO2)N1CCC(c2nc3ccccc3s2)CC1`, the IC50 is > 55.7 µM (inactive).

As for `Cn1c(=O)oc2cc(S(=O)(=O)N3CCCC(C(=O)N4CC=C(c5ccccc5)CC4)C3)ccc21` (configuration not stated), the IC50 was > 55.7 µM (inactive).

As for `CN1/C(=C\C(=O)C[n+]2ccc3ccccc3c2)C(C)(C)c2ccccc21`, the IC50 was > 55.7 µM (inactive).

In the case of `Cc1ccc(S(=O)(=O)N(C)c2ccc(C(=O)N3CCN(Cc4ccc5c(c4)OCO5)CC3)cc2)cc1`, the IC50 is > 55.7 µM (inactive).

Turning to `COc1cccc(-c2cc(C(=O)Nc3cccc(O)c3)no2)c1`, the IC50 result was “inactive”.

`Cc1cc(OCC(=O)Nc2ccncc2)cc(C)c1Br`: the IC50 was > 55.7 µM (inactive).

Turning to `CN(C)S(=O)(=O)c1ccc(C(=O)Nc2nc(-c3cccs3)cs2)cc1`, the IC50 was > 55.7 µM (inactive).

As for `O=C(Nc1ccn(Cc2ccccc2F)n1)c1ccc(COc2ccccc2Cl)cc1`, the IC50 was > 55.7 µM (inactive).

For `O=c1c2c(nc3n1CCCCC3)sc1c(O)cccc12`, the IC50 is > 55.7 µM (inactive).

Take `NNC(=O)c1cccc(COc2ccccc2Br)c1`: the IC50 entry is “inactive”.

On to `O=C(Nc1ccncc1)c1ccc(-c2ccccc2)cc1`, for which the IC50 is > 55.7 µM (inactive).

Turning to `O=C(Nc1cccc(S(=O)(=O)Nc2ccccc2Cl)c1)c1ccc(Cl)nc1`, the IC50 is > 55.7 µM (inactive).

Turning to `CCN(CC)c1ccc(NC(=O)CN2C(=O)CSc3ncccc32)c(C)c1`, the IC50 is > 55.7 µM (inactive).

As to `CN(C)S(=O)(=O)Oc1cccc(C(=O)Nc2ccc(Cl)cc2)c1`, the IC50 was > 55.7 µM (inactive).

For the compound `Cc1ccc(-n2nnnc2SCn2nnc3ccccc3c2=O)c(C)c1`, the IC50 was > 55.7 µM (inactive).

Turning to `O=C1C2C3c4ccccc4C(c4ccccc43)[C@@H]2c2nc3ccccc3n21` (some centres not stated), the IC50 is > 55.7 µM (inactive).

For `CC(=O)c1cn(CC(=O)Nc2ccccc2C)c2ccccc12`, the IC50 was > 55.7 µM (inactive).

`Cn1c(CN2CCCCC2)nc2cc(NC(=O)c3cccc(Br)c3)ccc21`: the IC50 is > 55.7 µM (inactive).

Turning to `Cc1nc2ccccc2cc1OCc1ccc(F)cc1`, the IC50 is > 55.7 µM (inactive).

With `COc1ccc(CC(=O)Nc2cccc(SC)c2)cc1OC`, the IC50 was > 55.7 µM (inactive).

Regarding `COc1ccccc1OCC(=O)c1[nH]c(C)c(C(C)=O)c1C`, the IC50 was > 55.7 µM (inactive).

As for `Nc1cc(-c2ccccc2)nn1Cc1ccc(Cl)cc1`, the IC50 was > 55.7 µM (inactive).

As to `Cc1cc(OCC(=O)Nc2ccncc2)ccc1Br`, the IC50 was > 55.7 µM (inactive).

`O=C(Nc1ccc(N2CCOCC2)nc1)c1ccc(C(F)(F)F)cc1`: the IC50 was > 55.7 µM (inactive).

With `COc1ccc2cc(-c3cc(C(=O)OCC(=O)Nc4c(C)n(C)n(-c5ccccc5)c4=O)c4ccccc4n3)ccc2c1`, the IC50 result was “inactive”.

Consider `Cc1nn2cc(-c3ncc(C(F)(F)F)cc3Cl)cnc2c1Br`, for which the IC50 entry is “inactive”.

`CN1/C(=C\C(=O)C[n+]2ccc(C(=O)c3ccccc3)cc2)C(C)(C)c2ccccc21`: the IC50 is > 55.7 µM (inactive).

Turning to `O=C(Nc1cccc(Cl)c1)Nc1ccnc(-c2cccnc2)n1`, the IC50 is > 55.7 µM (inactive).

As for `Cc1ccc(-c2cn3cc([N+](=O)[O-])ccc3n2)cc1`, the IC50 is > 18.6 µM (inactive).

For the compound `COc1ccc(NS(=O)(=O)c2ccc(NC(=O)c3ccc(N(C)S(C)(=O)=O)cc3)cc2)cc1`, the IC50 is > 55.7 µM (inactive).

With `CCOC(=O)Cc1csc(SCC(=O)c2c(N)n(CC(C)C)c(=O)n(C)c2=O)n1`, the IC50 was > 55.7 µM (inactive).

Turning to `O=C(COc1ccc2ccccc2c1)Nc1ccncc1`, the IC50 is > 55.7 µM (inactive).

`Cc1cccc(-c2nc3cc(NC(=O)C4CCCO4)ccc3o2)c1` (configuration not stated): the IC50 entry was “inactive”.

Consider `C[C@H]1O[C@@H](O[C@H]2[C@@H](O)C[C@H](O[C@H]3[C@@H](O)C[C@H](O[C@H]4CC[C@@]5(C)[C@H](CC[C@@H]6[C@@H]5C[C@@H](O)[C@]5(C)[C@@H](C7=CC(=O)OC7)CC[C@]65O)C4)O[C@@H]3C)O[C@@H]2C)C[C@H](O)[C@@H]1O`, for which the IC50 is > 55.7 µM (inactive).

Regarding `CCCCOc1ccc(C(=O)Nc2ccncc2)cc1`, the IC50 was > 55.7 µM (inactive).

For the compound `c1ccc(CC2CCN(c3ncnc4sccc34)CC2)cc1`, the IC50 was > 55.7 µM (inactive).

As for `CC1CCC2C(=O)N(c3ccccc3OC(=O)c3ccccc3)C(=O)C2C1` (configuration not stated), the IC50 was > 55.7 µM (inactive).

Consider `CCOc1ncccc1C(=O)OCC(=O)Nc1ccc(-c2nc3ccc(C)cc3s2)cc1`, for which the IC50 entry was “inactive”.

Take `COC(=O)Oc1ccc(/C=N/NC(=O)CSCc2ccccc2Br)cc1OC`: the IC50 is > 55.7 µM (inactive).

In the case of `Cc1nc(CNS(=O)(=O)c2ccc(Oc3ccccc3)cc2)cs1`, the IC50 was > 55.7 µM (inactive).

In the case of `COc1ccc(CC(=O)Nc2cccc(-c3nnc(-c4cccc(C)c4)o3)c2)cc1OC`, the IC50 result was “inactive”.

Regarding `O=C1C2C3c4ccccc4C(c4ccccc43)C2c2nc3ccccc3n21` (configuration not stated), the IC50 was > 55.7 µM (inactive).

As for `O=C(Nc1ccn(Cc2ccccc2F)n1)c1ccc(COc2ccc(Br)cc2)cc1`, the IC50 was > 55.7 µM (inactive).

Regarding `O=C(Nc1ccncc1)c1ccc2c(c1)C(=O)N(C1CCCCC1)C2=O`, the IC50 was > 55.7 µM (inactive).

`Cc1ccc(-n2ncc3c(SCc4cccnc4)ncnc32)c(C)c1`: the IC50 is > 55.7 µM (inactive).

As to `CSc1ccc(NC(=O)N2CCN(c3nc4ccccc4s3)CC2)cc1`, the IC50 was > 55.7 µM (inactive).

In the case of `C[C@H]1O[C@@H](O[C@H]2[C@@H](O)C[C@H](O[C@H]3[C@@H](O)C[C@H](O[C@H]4CC[C@@]5(C)[C@H](CC[C@@H]6[C@@H]5CC[C@]5(C)[C@@H](C7=CC(=O)OC7)CC[C@]65O)C4)O[C@@H]3C)O[C@@H]2C)C[C@H](O)[C@@H]1O`, the IC50 was > 55.7 µM (inactive).

With `O=C(Nc1ccc(Oc2ccccc2)cc1)C1CCN(c2c3c(nc4ncnn24)CCC3)CC1`, the IC50 is > 55.7 µM (inactive).

Turning to `CNC(=O)Oc1cccc(-c2cn3cc(Cl)ccc3n2)c1`, the IC50 result was “inactive”.

Take `CCOC(=O)C1=C(Cc2ccc(C)cc2)C(=O)c2ccccc2C1=O`: the IC50 was > 55.7 µM (inactive).

With `O=C(Nc1nccs1)c1ccc(S(=O)(=O)NCC2CCCCC2)cc1`, the IC50 is > 55.7 µM (inactive).

As to `CC(C)Cn1c(N)c(C(=O)CSc2ccccc2)c(=O)n(C)c1=O`, the IC50 is > 55.7 µM (inactive).

Take `Clc1ccc(CSc2nnc(Cn3cnc4ccccc43)o2)cc1`: the IC50 was > 55.7 µM (inactive).

With `NC(=O)C1CCN(c2ccc(S(=O)(=O)N3CCC(Cc4ccccc4)CC3)cn2)CC1`, the IC50 is > 55.7 µM (inactive).

In the case of `COc1cc(OC)cc(C(=O)Nc2ccc(-c3nc4ccccc4o3)cc2)c1`, the IC50 is > 55.7 µM (inactive).

Regarding `CCC(C)NC(=S)Nc1ccc(C(=O)OC)cc1` (configuration not stated), the IC50 was > 55.7 µM (inactive).

For the compound `Nc1cc(-c2ccc(Br)cc2)nn1Cc1ccccc1`, the IC50 is > 55.7 µM (inactive).

`O=C(Nc1ccc(N2CCN(C(=O)c3ccco3)CC2)c(Cl)c1)c1cc2ccccc2o1`: the IC50 result was “inactive”.

Turning to `CNc1ccccc1C(C)(C)c1cc(-c2ccc(F)cc2)no1`, the IC50 is > 55.7 µM (inactive).

Take `CC[n+]1ccccc1/C=C/c1ccc(N(C)C)cc1`: the IC50 is > 55.7 µM (inactive).

On to `CCOc1cc(C(=S)N2CCOCC2)ccc1OS(=O)(=O)c1ccc(NC(C)=O)cc1`, for which the IC50 was > 55.7 µM (inactive).

For `c1ccc(C(Cc2nc(-c3ccncc3)no2)c2ccccc2)cc1`, the IC50 is > 55.7 µM (inactive).

Turning to `O=C(Oc1ccccc1N1C(=O)C2CCCCC2C1=O)c1ccccc1` (configuration not stated), the IC50 was > 55.7 µM (inactive).

For `Cc1cccc(C)c1NC(=O)N1CCN(c2nc3ccccc3s2)CC1`, the IC50 is > 55.7 µM (inactive).

For `CCOC(=O)c1sc2nc(CC(=O)OC)nc(NCc3ccc(Cl)cc3)c2c1C`, the IC50 is > 55.7 µM (inactive).

For the compound `O=C(Nc1ccc(Cc2ccncc2)cc1)c1ccc(S(=O)(=O)N2CCOCC2)cc1`, the IC50 was > 55.7 µM (inactive).

As to `Cc1ccc(Cl)cc1N1CCN(C(=O)COc2ccc(S(=O)(=O)NC(C)C)cc2)CC1`, the IC50 was > 55.7 µM (inactive).

With `C[C@@H]1O[C@@H](O[C@H]2C[C@@H](O)[C@]3(CO)[C@H]4[C@H](O)C[C@]5(C)[C@@H](C6=CC(=O)OC6)CC[C@]5(O)[C@@H]4CC[C@]3(O)C2)[C@H](O)[C@H](O)[C@H]1O`, the IC50 is > 55.7 µM (inactive).

As to `O=C(Nc1ccc(Oc2ccccc2)cc1)c1cnc2n(c1=O)CCS2`, the IC50 is > 55.7 µM (inactive).

Turning to `Cc1cc(NC(=O)c2cc(-c3cccs3)on2)nn1Cc1ccc(Cl)cc1`, the IC50 is > 55.7 µM (inactive).

`Cc1ccsc1/C=C1\CCc2ccccc2C1=O`: the IC50 is 7.89 µM.

For `COc1ccc(/C=N/NC(=S)Nc2ccccc2[N+](=O)[O-])cc1O`, the IC50 was > 55.7 µM (inactive).

Consider `CC(=O)c1ccc(N=Nc2ccc(C)cc2)cc1`, for which the IC50 result was “inactive”.

With `Clc1ccc2ncc(-c3nnnn3-c3ccccc3)c(-c3ccccc3)c2c1`, the IC50 is > 55.7 µM (inactive).

With `Clc1ccc(OCc2cc(-c3ccccc3)no2)c(Cl)c1`, the IC50 result was “inactive”.

For `CCc1c(C)c2ccc(OCC(=O)OC(C)C)c(C)c2oc1=O`, the IC50 was > 55.7 µM (inactive).

As to `O=C(COC(=O)c1n[nH]c2ccccc12)Nc1ccc(S(=O)(=O)N2CCCC2)cc1`, the IC50 is > 55.7 µM (inactive).

In the case of `O=C(C1CCN(c2nc3ccc(Br)cc3s2)CC1)N1CCC2(CC1)OCCO2`, the IC50 is > 55.7 µM (inactive).
